Test results taken from patent US11272841B2, “Indicator fluids, systems, and methods for assessing movement of substances within, to or from a cerebrospinal fluid, brain or spinal cord compartment of a cranio-spinal cavity of a human” (BRAINWIDESOLUTIONS AS, priority 2017, dated 2022).

What was measured:
[1] = human, in vivo
Protocol: Repeated T1-weighted MRI scans of the intracranial compartment (and neck region for imaging of cervical lymph nodes), either in the presence or absence of the MRI contrast agent gadobutrol (0.5 ml of 1.0 mmol/ml; Gadovist®, Bayer Pharma AG, GE) delivered to the CSF compartment. MRI scans were acquired on a 3 Tesla Philips Ingenia MRI scanner (Philips Medical systems, Best, The Netherlands). The inventors used a dedicated imaging protocol for each region, that was applied to all time points. The following parameters for 3D T1 w imaging of the intracranial compartment were used: repetition time (TR)=5.1 ms (set to minimum), echo time (TE)=2.3 ms (set to minimum), flip angle=8 degrees, field of view=256×256 cm, and matrix=256×256 pixels (reconstructed 512×512). Total 184 over-contiguous slices with 1 mm thickness were sampled and automatically reconstructed to 368 slices and a thickness of 0.5 mm. Each image acquisition lasted 6 minutes and 29 seconds. An automated anatomy recognition protocol based on landmark detection in MRI data (SmartExam™, Philips Medical Systems, Best, The Netherlands) was applied at every time point to secure consistency and reproducibility of the MRI studies. Neck images were obtained in an anatomical standardized coronal plane, using T1 weighted turbo spin echo (TSE) DIXON with the following main image sequence parameters: TR=560 ms, TE=14 ms, flip angle=90 degrees, field of view 250×198 mm, voxel size=1×1×3 mm reconstructed to 0.58×0.58×3 mm^3, gap 0.3 mm, number of slices=30. For detection of neck lymph nodes, we obtained coronal T2 weighted TSE DIXON with TR=ranged 2500-3500 (actual 2500), TE=80 ms, flip angle=90 degrees, field of view 250×200 mm, resolution 0.6×0.79×3 mm^3 reconstructed to 0.58×0.58×3 mm^3, gap 0.3 mm, number of slices=30. Moreover, to ensure same position on the coronal slices between scan times a screen dump showing the placement of the first coronal images was saved and used as a reference for subsequent planning by the radiographer. […]

[2] = cited from earlier work

O=C([O-])CN1CCN(CC(=O)[O-])CCN([C@H](CO)[C@H](O)CO)CCN(CC(=O)[O-])CC1.[Gd+3] (racemic) [gadobutrol]
Increase of indication signal as compared without contrast [1]: 29%
SU enhancement within cervical LNs as proportion of that in the brain [1]: about 40%
Time of peak enhancement in T1 SUs after gadobutrol present within CSF [1]: 24 h
Half-time of gadobutrol in blood [2]: about 1.8 hours
